Values quoted from earlier work in PMC7751758, “Repurposing Sigma-1 Receptor Ligands for COVID-19 Therapy?” (Frontiers in Pharmacology, 2020).

System: SARS-CoV
Conditions: mouse, in vivo

Compound | clinical disease | virus replication in lungs
CCN(CC)CCCC(C)Nc1ccnc2cc(Cl)ccc12 (stereo not shown) [Chloroquine] | did protect mice from clinical disease | did not inhibit virus replication in lungs
CN(C)CCCN1c2ccccc2Sc2ccc(Cl)cc21 [Chlorpromazine] | did protect mice from clinical disease | did not inhibit virus replication in lungs
